Assay [1] deals with PEG-3 (UniProt Q6IN02). Briefly: inhibition of PEG-3 promoter-driven reporter – cell-based, HeLa, luciferase, CREF/GAPDH counter-screen panel, dose response (AID 624167). Particulars: HeLa PEG-Prom luciferase reporter, overnight, CREF/GAPDH counter-screens, mean of runs. On the technique in general: Counterscreens check selectivity or assay interference.
In assay [2] the test system is PEG-3. The description is as above. Particulars: HeLa PEG-Prom luciferase reporter, overnight, CREF/GAPDH counter-screens.
[3] abbreviates: run 1, dose range 1, individual replicate IC50 per panel.
The mark [4] stands for this setting: run 2, dose range 1, individual replicate IC50 per panel.

Calls of active or inactive are those of the source.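 How the source made its calls: active means mean IC50 for reducing PEG3 promoter reporter signal at or below a set limit, with IC50 above the limit in both counter screens; inactive means the rest, including counter screen hits.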

The text below walks through data of PubChem BioAssay AID624167 (Sanford-Burnham Center for Chemical Genomics, 2012).

Chain of PEG-3 (UniProt Q6IN02) (Q6IN02 whole entry, looked up): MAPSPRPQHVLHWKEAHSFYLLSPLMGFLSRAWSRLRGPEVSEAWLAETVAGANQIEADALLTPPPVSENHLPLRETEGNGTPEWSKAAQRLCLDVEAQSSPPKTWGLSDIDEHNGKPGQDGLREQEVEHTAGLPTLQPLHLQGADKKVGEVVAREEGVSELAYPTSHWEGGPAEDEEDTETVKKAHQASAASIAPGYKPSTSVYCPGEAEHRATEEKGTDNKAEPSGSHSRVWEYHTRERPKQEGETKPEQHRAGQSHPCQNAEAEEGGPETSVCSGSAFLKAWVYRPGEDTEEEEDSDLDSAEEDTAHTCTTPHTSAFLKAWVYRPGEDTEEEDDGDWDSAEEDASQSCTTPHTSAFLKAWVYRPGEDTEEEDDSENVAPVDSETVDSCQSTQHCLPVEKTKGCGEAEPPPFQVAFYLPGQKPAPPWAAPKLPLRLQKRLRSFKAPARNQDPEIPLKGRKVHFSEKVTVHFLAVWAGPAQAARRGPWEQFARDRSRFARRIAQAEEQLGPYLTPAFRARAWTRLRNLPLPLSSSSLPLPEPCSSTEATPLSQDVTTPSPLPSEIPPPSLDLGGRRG

For the compound `COc1ccc(CCNC(=O)C(=O)NCC2CCCN2S(=O)(=O)c2ccccc2)cc1OC` (centres undefined), on PEG-3 [1], the IC50 (commonly the point on the concentration scale where inhibition reaches its midpoint) is “inactive”. The values for the IC50 with PEG-3 [2] (setting [3]) and with PEG-3 [2] (setting [4]) were 29.8 µM and 39.3 µM, respectively.

Take `CCOc1ccc2nc(N(CCCN(C)C)C(=O)c3ccc(C(=O)c4ccccc4)cc3)sc2c1`: the figures for the IC50 at PEG-3 [1], in the assay on PEG-3 [2] (setting [3]) and with PEG-3 [2] (setting [4]) were 13.9 µM, 20.3 µM and 7.58 µM, respectively.

In the case of `CCCCCCSc1cc(-c2nc3ccc(C)cn3c2NCCCC)ccc1OC`, the IC50 at PEG-3 [1] was 16.2 µM; in the assay on PEG-3 [2] (setting [3]) it was 21.4 µM; with PEG-3 [2] (setting [4]), 11 µM.

Turning to `COc1ccc(C(O)(CCC(C)C)C(CN2CCOCC2)c2ccccc2)cc1` (centres undefined), the IC50 result at PEG-3 [1] was “inactive”. The IC50 in the assay with PEG-3 [2] (setting [3]) amounted to 30.5 µM; in the assay with PEG-3 [2] (setting [4]), 30.2 µM.

In the case of `O=[N+]([O-])c1ccc(-c2nc(Nc3cccc(O)c3)c3ccccc3n2)cc1`, the half-inhibitory concentration (IC50) at PEG-3 [1] is 12.9 µM; in the assay on PEG-3 [2] (setting [3]) it was 13.4 µM; in the assay on PEG-3 [2] (setting [4]) it was 12.5 µM.

Turning to `CC(C)n1cc(CN2CCC(C(=O)Nc3cccc(-c4cccc(Cl)c4)c3)CC2)cn1`, the IC50 was 13.4 µM at PEG-3 [1], 17.4 µM in the assay with PEG-3 [2] (setting [3]) and 9.39 µM in the assay on PEG-3 [2] (setting [4]).

As for `CCOc1cccc2sc(N(CCCN(C)C)C(=O)c3ccc(S(=O)(=O)N(CC)Cc4ccccc4)cc3)nc12`, the IC50 at PEG-3 [1] is 15.4 µM; in the assay on PEG-3 [2] (setting [3]), 19.1 µM; with PEG-3 [2] (setting [4]) it was 11.8 µM.

For the compound `COc1cccc(C(=O)c2sc(NC(C)C)nc2N)c1`, the IC50 at PEG-3 [1] is 15 µM; in the assay with PEG-3 [2] (setting [3]) it was 16.5 µM; in the assay on PEG-3 [2] (setting [4]) it was 13.6 µM.

In the case of `CC(=O)c1ccc(Nc2cc(C)nc3ccc(C)cc23)cc1`, the IC50 is 13.3 µM on PEG-3 [1], 21.8 µM in the assay on PEG-3 [2] (setting [3]) and 4.69 µM in the assay with PEG-3 [2] (setting [4]).

Turning to `COc1ccc(CNCCC(c2ccccc2)c2ccc(OC(C)C)cc2)cc1OC` (centres undefined), the values for the IC50 on PEG-3 [1], with PEG-3 [2] (setting [3]) and in the assay on PEG-3 [2] (setting [4]) were 18.8 µM, 18.1 µM and 19.5 µM, respectively.

In the case of `NC1=NC[C@H](Cc2ccccc2)N1CCc1cc(C(F)(F)F)cc(C(F)(F)F)c1`, the IC50 entry at PEG-3 [1] is “inactive”. For the same compound, the concentration for half-maximal inhibition (IC50) with PEG-3 [2] (setting [3]) turned out to be 46.5 µM; in the assay on PEG-3 [2] (setting [4]), 17.1 µM.

Regarding `CCN1CCN(Cc2c(O)ccc3c2O/C(=C\C=C\c2ccccc2)C3=O)CC1`, the IC50 entry on PEG-3 [1] is “inactive”. The IC50 in the assay with PEG-3 [2] (setting [3]) was 46.6 µM; in the assay with PEG-3 [2] (setting [4]) it was 11.5 µM.

For the compound `Cc1nn(C(C)(C)C)c(C)c1/C=N/OC(=O)Nc1ccc(Cl)cc1`, the IC50 at PEG-3 [1] is 3.17 µM; in the assay with PEG-3 [2] (setting [3]) it was 6.13 µM; with PEG-3 [2] (setting [4]), less than 0.2 µM.

On to `O=S(=O)(/N=C(/Sc1ccccc1)c1ccccc1)c1ccccc1`, for which, at PEG-3 [1], the IC50 result is “inactive”. In addition, the IC50 is 28.9 µM in the assay on PEG-3 [2] (setting [3]) and 19.1 µM with PEG-3 [2] (setting [4]).

Consider `C/C(=N\N=C(N)N)c1ccc(Cl)cc1Cl`, for which the figures for the IC50 on PEG-3 [1], with PEG-3 [2] (setting [3]) and with PEG-3 [2] (setting [4]) were 18 µM, 18.7 µM and 17.2 µM, respectively.

On to `Cc1cccc(NC(=O)CSc2nc3ccccc3c3nc(CCc4c(C)n[nH]c4C)nn23)c1`, for which the IC50 result at PEG-3 [1] is “inactive”. For the same compound, the IC50 with PEG-3 [2] (setting [3]) stood at 27.9 µM; in the assay on PEG-3 [2] (setting [4]) it was 37.7 µM.

Take `CC(C)CC(N)c1csc(NC(=O)Nc2ccccc2C(C)C)n1` (centres undefined): the 50% inhibitory concentration (IC50) on PEG-3 [1] is 15.7 µM; with PEG-3 [2] (setting [3]) it was 30.1 µM; in the assay on PEG-3 [2] (setting [4]), 1.37 µM.

In the case of `C[C@@H](C(=O)Nc1ccc2c(c1)OCCO2)n1c(=O)[nH]c2ccccc2c1=O`, the IC50 result at PEG-3 [1] is “inactive”. Besides, the IC50 with PEG-3 [2] (setting [3]) was 11.8 µM; in the assay with PEG-3 [2] (setting [4]), more than 100 µM.

As for `Cc1ccc(C)c(OCC(O)CN2CCC(CN3C(=O)c4cccc5cccc(c45)C3=O)CC2)c1` (centres undefined), the IC50 was 17.2 µM at PEG-3 [1], 18.4 µM with PEG-3 [2] (setting [3]) and 15.9 µM in the assay on PEG-3 [2] (setting [4]).

For the compound `CCc1cccc(CC)c1NC(=S)NCCc1c(C)[nH]c2ccc(C)cc12`, the IC50 result on PEG-3 [1] was “inactive”. For the same compound, the IC50 with PEG-3 [2] (setting [3]) was 29.6 µM; with PEG-3 [2] (setting [4]), 13.8 µM.

As for `CCc1ccc(NC(=O)CSc2nc3ccccc3c(=O)n2CCCN2CCC(C)CC2)cc1`, the IC50 is 17.3 µM at PEG-3 [1], 19.8 µM in the assay with PEG-3 [2] (setting [3]) and 14.8 µM in the assay on PEG-3 [2] (setting [4]).

For the compound `CC(C)CN(C(=O)COC(=O)/C=C/c1ccc(Cl)c(Cl)c1)c1c(N)n(Cc2ccccc2)c(=O)[nH]c1=O`, the IC50 at PEG-3 [1] was > 100 µM (inactive); with PEG-3 [2] (setting [3]), more than 100 µM; in the assay with PEG-3 [2] (setting [4]), more than 100 µM.

On to `O=C1/C(=C\c2cccc(O)c2O)SC(=S)N1Cc1ccccc1`, for which, on PEG-3 [1], the IC50 result is “inactive”. Further, the IC50 with PEG-3 [2] (setting [3]) turned out to be 14.1 µM; with PEG-3 [2] (setting [4]) it was 30.1 µM.

Turning to `Cc1c(OCC(=O)NC2CC(C)(C)NC(C)(C)C2)ccc2c1oc(=O)c1ccccc12`, the IC50 result at PEG-3 [1] was “inactive”. The IC50 in the assay on PEG-3 [2] (setting [3]) is 43.5 µM; in the assay with PEG-3 [2] (setting [4]), more than 100 µM.

As to `O=C(C[C@H]1C[C@H](C(=O)N2CCCCC2)[C@@]2(CCc3ccccc3)c3[nH]c4ccc(Cl)cc4c3CCN2C1=O)NCCc1ccccn1`, the IC50 entry at PEG-3 [1] is “inactive”. Further, the IC50 came out at 17.8 µM in the assay with PEG-3 [2] (setting [3]) and 25.7 µM with PEG-3 [2] (setting [4]).

Take `Cc1cc(C(=O)CN2C(=O)c3ccccc3S2(=O)=O)c(C)n1C(C)C`: the IC50 on PEG-3 [1] is 12.1 µM; in the assay on PEG-3 [2] (setting [3]), 6.41 µM; in the assay on PEG-3 [2] (setting [4]), 17.8 µM.

In the case of `COc1cccc(CN(C)C(=O)c2cc(-c3cccs3)nc3ccccc23)c1`, the IC50 entry on PEG-3 [1] is “inactive”. Further, the IC50 with PEG-3 [2] (setting [3]) is 24.7 µM; with PEG-3 [2] (setting [4]), 30.8 µM.

On to `c1ccc(-c2cc(-c3ccccc3)[n+](-c3ccccc3)c(-c3ccccc3)c2)cc1`, for which the results for the IC50 at PEG-3 [1], in the assay on PEG-3 [2] (setting [3]) and in the assay on PEG-3 [2] (setting [4]) were 12.3 µM, 10.7 µM and 13.9 µM, respectively.

As to `COC(=O)CSC1=NS(=O)(=O)c2ccccc21`, the IC50 result on PEG-3 [1] is “inactive”. For the same compound, the values for the IC50 in the assay with PEG-3 [2] (setting [3]) and in the assay with PEG-3 [2] (setting [4]) were more than 100 µM and 33.5 µM, respectively.

Regarding `O=C(c1cc(-c2cccs2)nn1-c1ccccc1)N1CCN(S(=O)(=O)c2ccccc2)CC1`, the IC50 entry at PEG-3 [1] was “inactive”. The values for the IC50 in the assay on PEG-3 [2] (setting [3]) and with PEG-3 [2] (setting [4]) were 8.84 µM and more than 100 µM, respectively.

Consider `CCOc1cccc2sc(N(CCCN(C)C)C(=O)c3ccc(S(=O)(=O)N(C)Cc4ccccc4)cc3)nc12`, for which the IC50 on PEG-3 [1] was 16.6 µM; in the assay with PEG-3 [2] (setting [3]), 18.6 µM; with PEG-3 [2] (setting [4]) it was 14.7 µM.

As to `O=c1[nH]c(=S)[nH]c(O)c1/C=C1\C=Nc2ccccc21`, on PEG-3 [1], the IC50 result is “inactive”. Also, the half-maximal inhibitory concentration (IC50) is more than 100 µM with PEG-3 [2] (setting [3]) and 17.6 µM in the assay with PEG-3 [2] (setting [4]).

For `COc1ccc(-n2c(/C=C/c3ccc(O)c(OC)c3)nc3ccccc3c2=O)cc1`, the IC50 at PEG-3 [1], in the assay with PEG-3 [2] (setting [3]) and with PEG-3 [2] (setting [4]) was 15.8 µM throughout.

`O=C1NC(Cc2ccc(O)cc2)c2nc3ccc(F)cc3c(=O)n2-c2cc3ccccc3cc21` (centres undefined): the IC50 result at PEG-3 [1] was “inactive”. For the same compound, the results for the IC50 in the assay with PEG-3 [2] (setting [3]) and with PEG-3 [2] (setting [4]) were 19.9 µM and 34.4 µM, respectively.

On to `CN(C(=O)OC(C)(C)C)c1ccc(-c2nc3ccccc3s2)cc1`, for which the IC50 on PEG-3 [1] is 2.31 µM; in the assay on PEG-3 [2] (setting [3]), less than 0.2 µM; in the assay with PEG-3 [2] (setting [4]), 4.43 µM.

Regarding `FC(F)Sc1ccc(NC(=S)NC(c2ccccc2)c2ccccc2)cc1`, the half-maximal inhibitory concentration (IC50) at PEG-3 [1] is 18 µM; in the assay on PEG-3 [2] (setting [3]), 19.9 µM; in the assay on PEG-3 [2] (setting [4]) it was 16 µM.

On to `O=C(NC1=C(NC2CCS(=O)(=O)C2)C(=O)c2ccccc2C1=O)c1ccccc1` (centres undefined), for which the figures for the half-inhibitory concentration (IC50) at PEG-3 [1], in the assay on PEG-3 [2] (setting [3]) and in the assay on PEG-3 [2] (setting [4]) were 18.9 µM, 19.1 µM and 18.7 µM, respectively.

As for `CCCc1nc2oc3c(NCCCN(C)C)ncnc3c2c2c1CCCC2`, the IC50 is 14.7 µM on PEG-3 [1], 19.5 µM in the assay on PEG-3 [2] (setting [3]) and 9.84 µM in the assay on PEG-3 [2] (setting [4]).
